Entries after “also recorded” stand apart in the source; their conditions may differ.
Tests used:
[1] = tested on: HP (Ph− ALL PD-LTC); test: XTT cell viability, PD-LTC HP; conditions: increasing concentration up to 10 μM
Procedure: (§7) Each tested compound was dissolved in a suitable vehicle and cells were exposed to successive solutions containing an increasing concentration of each test compound, as well as a control sample containing no test compound. A range of 5 (or 10) concentrations were tested in triplicates starting from 1 μM. The potency of each test compound was assessed by cell viability using an XTT assay [53, 54]. The ratio of cell viability (CV %) was determined by calculating the average of each triplicate, normalizing to the average in case to the average of the control sample.
(§8) Standard deviation (STD) was calculated for each triplicate and the curve logarithmic equation was calculated for each curve.
(§9) Each compound was assayed against a panel of Patient-Derived Long-Term cultures (PD-LTCs) including: • 8. […] PH: primary Patient-Derived Long-Term Cultures (PD-LTCs) from Ph^+ ALL patients Ph+ ALL (p185-BCR-ABL) that are fully responsive to TKIs ˜30% of adult ALL patients harbor the Ph chromosome, that represent a high-risk group of ALL. • 10. […] HP: PD-LTCs derived from Ph− ALL patient (not harboring the Ph chromosome). HP was used as negative control. • 12. VM: derived from a Ph+ ALL patient harboring p210-BCR-ABL. • 13.
(§10) The dose-response curves for single agent treatments were generated in Prism 9 (GraphPad). Curve fitting was performed by nonlinear regression using the log(inhibitor) vs. normalized response—Variable slope model.

[2] = tested on: PINCO transfected Ba/F3 cells; test: XTT cell viability, Ba/F3 transduced with empty vector (PINCO); assay type: cell-based, murine; conditions: increasing concentration up to 10 μM
Procedure: (§1) • 1. Ba/F3 cells were obtained from the German Collection of Microorganisms and Cell Cultures (DSMZ, Braunschweig, Germany) and maintained in RPMI 1640 medium supplemented with 10% fetal calf serum (Invitrogen) containing 10 ng/ml of interleukin-3 (Cell Concepts, Umkirch, Germany). Ecotropic Phoenix cells and Rat-1 cells were cultured in Dulbecco's modified Eagle's medium supplemented with 10% fetal calf serum. GNF-2 (Sigma-Adrich, Steinheim, Germany) was dissolved in dimethyl sulfoxide and added at a final concentration of […]. Cell growth was assessed by dye exclusion using Trypan blue. Proliferation was assessed using the XTT proliferation kit (Roche, Mannheim, Germany), according to the manufacturer's instructions. • 2. Ba/F3: IL-3 dependent lymphatic murine pro B cell line. Ba/F3 cells expressing either p185-BCR-ABL1 (p185-BCR-ABL-Ba/F3) or p210-BCR-ABL (p210-BCR-ABL-Ba/F3). p185-BCR-ABL1 (activated kinases substitute for the IL-3 signaling and therefore render the cells IL3 independent. Ba/F3 cells expressing either p185-BCR-ABL (p185-Ba/F3) or p210-BCR-ABL (p210-Ba/F3). Ba/F3 cells obtained from the German Collection of Microorganisms and Cell Cultures (DSMZ, Braunschweig, Germany). • 3. Mutant transduced Ba/F3 cells (T315I-p185-BCR-ABL1 or T315I-p210-BCR-ABL1): Ba/F3 cells expressing either the mutated forms T315I-p185-BCR-ABL1 or T315I-p210-BCR-ABL1. • 4. WT-Sup-B15: A Ph+ ALL cell line harboring the p185-BCR-ABL. Sup-B15: established from the bone marrow of a child with acute lymphoblastic leukemia (B cell precursor ALL) in second relapse in 1984; described in the literature to carry the ALL-variant (m-BCR) of the BCR-ABL1 fusion gene (e1-a2) correct, because it results in the p185-BCR-ABL version. • 5. […]
FIG. 11: Antiproliferative effect of Compound 16 on PINCO transfected Ba/F3 cells. […] Proliferation status was determined by the metabolic activity of cells given by the reduction rate of XTT to formazan. […]

[3] = tested on: SATA5, pSTAT5, JAK2 and pJAK2; test: Western blotting of HEL cells; assay type: cell-based, human; conditions: 500 nM
Procedure: FIG. 40: Western blot analysis of HEL cells using antibodies directed against the indicated proteins. Cells were exposed to increasing concentration of Compound 34 [vehicle (0.0 nM), 50, 100.0, 500.0, 1000.0, and 5000.0 nM].
Cells were harvested at the corresponding time intervals (0, 3, 6, 12, and 14 hours) on HELL cells. Anti-STAT5, anti-pSTAT5, anti-JAK2 and anti-pJAK2 antibodies were used.

[4] = tested on: Sup-B15 (p185-BCR-ABL); test: XTT cell viability, Sup-B15 (WT-Sup-B15); assay type: cell-based, human
Procedure: (§2) • 1. Ba/F3 cells were obtained from the German Collection of Microorganisms and Cell Cultures (DSMZ, Braunschweig, Germany) and maintained in RPMI 1640 medium supplemented with 10% fetal calf serum (Invitrogen) containing 10 ng/ml of interleukin-3 (Cell Concepts, Umkirch, Germany). Ecotropic Phoenix cells and Rat-1 cells were cultured in Dulbecco's modified Eagle's medium supplemented with 10% fetal calf serum. GNF-2 (Sigma-Adrich, Steinheim, Germany) was dissolved in dimethyl sulfoxide and added at a final concentration of […]. Cell growth was assessed by dye exclusion using Trypan blue. Proliferation was assessed using the XTT proliferation kit (Roche, Mannheim, Germany), according to the manufacturer's instructions. • 2. Ba/F3: IL-3 dependent lymphatic murine pro B cell line. Ba/F3 cells expressing either p185-BCR-ABL1 (p185-BCR-ABL-Ba/F3) or p210-BCR-ABL (p210-BCR-ABL-Ba/F3). p185-BCR-ABL1 (activated kinases substitute for the IL-3 signaling and therefore render the cells IL3 independent. Ba/F3 cells expressing either p185-BCR-ABL (p185-Ba/F3) or p210-BCR-ABL (p210-Ba/F3). Ba/F3 cells obtained from the German Collection of Microorganisms and Cell Cultures (DSMZ, Braunschweig, Germany). • 3. Mutant transduced Ba/F3 cells (T315I-p185-BCR-ABL1 or T315I-p210-BCR-ABL1): Ba/F3 cells expressing either the mutated forms T315I-p185-BCR-ABL1 or T315I-p210-BCR-ABL1. • 4. WT-Sup-B15: A Ph+ ALL cell line harboring the p185-BCR-ABL. Sup-B15: established from the bone marrow of a child with acute lymphoblastic leukemia (B cell precursor ALL) in second relapse in 1984; described in the literature to carry the ALL-variant (m-BCR) of the BCR-ABL1 fusion gene (e1-a2) correct, because it results in the p185-BCR-ABL version. • 5. […] V617FJAK2 HEL: (Human erythroleukemia) is a growth factor independent erythroleukemic cell line established from the bone marrow of a patient with relapsed Hodgkin disease after autologous bone marrow transplantation (Martin P & Papayannopoulou T: Science 1982; 216:1233-1235). HEL cells display a block in differentiation at the level of common erythroid-megakaryocytic progenitor and have been commonly used as a model to study erythroid and megakaryocytic differentiation. • 7. Jurkat: an immortalized human T lymphocyte first derived from the peripheral blood of a child suffering from T cell leukemia. Jurkat cells are used to study acute T cell leukemia, T cell signaling, and the expression of various chemokine receptors susceptible to viral entry, particularly HIV.
(§3) FIG. 2: Effect of Compound 16 on leukemia cell lines (Jurkat, Sup-B15 and BV173). Cell viablility (CV) was determined following incubation of the 1 m cells/ml of each cell line with increasing concentration of the Compound 16 [empty vehicle (0.0 μM+IL3), 2.5, 5.0 and 10.0 μM]. CV was measured by the XTT method. The means±SD of triplicates from one representative experiment out of three performed are given.

[5] = tested on: Jurkat; test: XTT cell viability, Jurkat; assay type: cell-based, human; conditions: increasing concentration up to 10 μM
Procedure: as §1
as §3, with “The means±SD of triplicates from one representative experiment out of three performed are given.” left out

[6] = tested on: PH (Ph+ ALL PD-LTC); test: XTT cell viability, PD-LTC PH; conditions: for antiproliferative response (in words): increasing concentration 0.5-10 μM
Procedure: as §7, §8, §9, §10

[7] = tested on: Ba/F3 cells expressing p185-BCR-ABL; test: XTT cell viability / proliferation, Ba/F3 expressing p185-BCR-ABL; assay type: cell-based, murine; conditions: p185-BCR-ABL-Ba/F3, increasing concentration up to 10 μM
Procedure: as §2
(§4) FIGS. 1A and 1B: Effects of Compound 16 on Ba/F3 cells expressing either p185-BCR-ABL or T315I-p185-BCR-ABL. Cells were exposed to increasing concentration of Compound 16 [empty vehicle (0.0 μM+IL3), 2.5, 5.0 and 10.0 μM]. […] Cell viability (CV) was assessed using the XTT method as described in the experimental part. The means±SD of triplicates from one representative experiment out of three performed are given.
(§5) FIGS. 7A-C: Effects of Compound 16 on of Ba/F3 cells expressing WT-p185-BCR-ABL (FIG. 7A) and the mutant gatekeeper T315I-p185-BCR-ABL (FIG. 7B) by Compound 16. Cells were exposed to increasing concentrations of Compound 16.

[8] = tested on: KÖ (Ph+T315I-p185-BCR-ABL ALL); test: XTT cell viability, PD-LTC KÖ; assay type: cell-based, human
[9] = tested on: Ba/F3 cells expressing T315I-p185-BCR-ABL; test: XTT cell viability / proliferation, Ba/F3 expressing T315I-p185-BCR-ABL; assay type: cell-based, murine; conditions: for antiproliferative response (in words): T315I-p185-BCR-ABL-Ba/F3, increasing concentration up to 10 μM
Procedure: as §2, §4, §5

[10] = tested on: BV (Ph+ ALL PD-LTC); test: XTT cell viability, PD-LTC BV; assay type: cell-based, human; conditions: for antiproliferative response (in words): increasing concentration 0.5-10 μM; for induction of cell proliferation at high concentration (in words): concentration >5 μM (10 μM)
[11] = tested on: RT-Sup-B15; test: XTT cell viability, RT-Sup-B15; assay type: cell-based, human; conditions: RT-Sup-B15, increasing concentration up to 10 μM
Procedure: (§6) • 1. Ba/F3 cells were obtained from the German Collection of Microorganisms and Cell Cultures (DSMZ, Braunschweig, Germany) and maintained in RPMI 1640 medium supplemented with 10% fetal calf serum (Invitrogen) containing 10 ng/ml of interleukin-3 (Cell Concepts, Umkirch, Germany). Ecotropic Phoenix cells and Rat-1 cells were cultured in Dulbecco's modified Eagle's medium supplemented with 10% fetal calf serum. GNF-2 (Sigma-Adrich, Steinheim, Germany) was dissolved in dimethyl sulfoxide and added at a final concentration of […]. Cell growth was assessed by dye exclusion using Trypan blue. Proliferation was assessed using the XTT proliferation kit (Roche, Mannheim, Germany), according to the manufacturer's instructions. • 2. Ba/F3: IL-3 dependent lymphatic murine pro B cell line. […]

[12] = tested on: Ph− V617FJAK2 HEL; test: XTT cell viability, HEL; assay type: cell-based, human; conditions: increasing concentration up to 10 μM
Procedure: as §6

Row | Structure (SMILES) | antiproliferative response (in words) [1] | antiproliferative response (in words) [6] | antiproliferative response (in words) [7] | antiproliferative response (in words) [9] | antiproliferative response (in words) [10] | further results
1 | O=C(c1cccc(-c2cc(Nc3ccc(OC(F)(F)F)cc3)ncn2)c1)N1CCN(c2ccc(C(F)(F)F)cn2)CC1 [Compound 34] | highly resistant; also recorded: negligible; also recorded: some response at higher doses | most responsive; also recorded: twice as sensitive | most sensitive | least responsive; also recorded: irresponsive | more effective in inhibiting the proliferation BV than KÖ | antiproliferative response (in words) [2]: intermediately responsive; also recorded: next in response; level of expression of SATA5, pSTAT5, JAK2 and pJAK2 (in words) [3]: reduction in the level of expression; IC50 ([4]; WT-Sup-B15, Table 1): 28.6 µM; antiproliferative response (in words) [5]: irresponsive; also recorded: negligible; IC50 ([6]; Table 1): 0.13 µM; IC50 ([8]; Table 1): 2.37 µM; IC50 ([10]; Table 1): 0.45 µM; antiproliferative response (in words) [11]: irresponsive; also recorded: negligible
2 | Cc1ccc(S(=O)(=O)N2CCN(c3cc(Nc4ccc(OC(F)(F)F)cc4)ncn3)CC2)cc1 [Compound 31] | negligible | significantly inhibited; also recorded: increased sensitivity; also recorded: enhanced activity | negligible | negligible | significantly inhibited; also recorded: increased sensitivity; also recorded: enhanced activity | antiproliferative response (in words) [12]: negligible; induction of cell proliferation at high concentration (in words) ([6]; concentration >5 μM (10 μM)): induction of cell proliferation; also recorded: growth induction; induction of cell proliferation at high concentration (in words) [10]: induction of cell proliferation; also recorded: growth induction; induction of cell proliferation at high concentration (in words) ([10]; listed as −31): growth induction
3 | CS(=O)(=O)N1CCN(c2cc(Nc3ccc(OC(F)(F)F)cc3)ncn2)CC1 [Compound 30] |  | increased sensitivity; also recorded: PH>BV | increased sensitivity | concentration dependent inhibition; also recorded: weakly responsive | increased sensitivity | antiproliferative response (in words) [12]: weakly responsive; also recorded: negligible at low concentrations (<1 μM); also recorded: weak inhibition is noticed at concentration that ranges between 2.5-10 μM; antiproliferative response (in words) [2]: weakly responsive; antiproliferative response (in words) ([4]; Sup-B15 / WT-Sup-B15, increasing concentration up to 10 μM): responsive; also recorded: twice as sensitive; also recorded: increased sensitivity; antiproliferative response (in words) [5]: irresponsive; antiproliferative response (in words) ([8]; increasing concentration up to 10 μM): weak inhibition is noticed at concentration that ranges between 2.5-10 μM; also recorded: negligible at low concentrations (<1 μM); cell viability (CV) at plateau ([9]; 4 and 10.0 μM): ~16%; antiproliferative response (in words) [11]: irresponsive; also recorded: weakly responsive
4 | Cc1ccc(NC(=O)c2ccc(CN3CCN(C)CC3)cc2)cc1Nc1nccc(-c2cccnc2)n1 [Imatinib, reference compound] | irresponsiveness |  |  |  |  | 
5 | O=C(Nc1ccc(OC(F)(F)Cl)cc1)c1cnc(N2CC[C@@H](O)C2)c(-c2cc[nH]n2)c1 [ABL001, Asciminib, reference compound] | irresponsiveness |  |  |  |  | 
6 | Cc1cn(-c2cc(NC(=O)c3ccc(C)c(Nc4nccc(-c5cccnc5)n4)c3)cc(C(F)(F)F)c2)cn1 [Nilotinib, reference compound] | irresponsiveness |  |  |  |  | 
7 | COc1ccc(C(=O)N2CCN(c3cc(Nc4ccc(OC(F)(F)F)cc4)ncn3)CC2)c(OC)c1 [Compound 32] |  | enhanced activity; also recorded: good inhibitory effect |  |  | enhanced activity; also recorded: milder | 

— patent US20250228851A1, “ALLOSTERIC INHIBITOR COMPOUNDS FOR OVERCOMING CANCER RESISTANCE” (priority 2021, published 2025)
